Test results taken from the NIST ThermoML archive (doi:10.1021/je900915p).

How the values were obtained:
[1] = 298.15 K, 101.33 kPa, Liquid; for viscosity: Capillary tube (Ostwald / Ubbelohde) method
[2] = xn = mol fraction of the nth substance listed; conditions: 298.15 K, 101 kPa, Liquid; for viscosity: Capillary tube (Ostwald / Ubbelohde) method
[3] = mn = molality of the nth substance listed, in mol/kg; conditions: 298.15 K, 101 kPa, Liquid; for speed of sound: Pulse-echo method

CC#N [acetonitrile]
[1]
Conditions	mass density [kg/m3]	viscosity [mPa·s]
–	776.85	0.341

CC#N [acetonitrile] + N#CCCCCC#N
[2], x1 = 1
Conditions	mass density [kg/m3]	viscosity [mPa·s]
–	776.85	0.341

Cc1ccc2ccc3ccc(C)nc3c2n1.Cc1ccc2ccc3ccc(C)nc3c2n1.[Cu+2].[O-][Cl+3]([O-])([O-])[O-].[O-][Cl+3]([O-])([O-])[O-] [bis-(2,9-dimethyl-1,10-phenanthroline) copper perchlorate] + CC#N
[3]
Conditions	mass density [kg/m3]	speed of sound [m/s]
m1 = 0.02474	792.91	1273.2
m1 = 0.03841	801.84	1274.5
m1 = 0.05937	815.69	1275.9
m1 = 0.08169	830.27	1277.3
m1 = 0.1218	857.14	1279.7

N#CCCCCC#N [hexanedinitrile]
[1]
Conditions	mass density [kg/m3]	viscosity [mPa·s]
–	975.26	5.99

N#CCCCCC#N [hexanedinitrile] + CC#N
[2]
Conditions	mass density [kg/m3]	viscosity [mPa·s]
x2 = 0.5	892.51	1.61
x2 = 0.6	880	1.41
x2 = 0.7	870	1.057
x2 = 0.8	848.59	0.684
x2 = 0.9	818.58	0.506

O=[N+]([O-])[O-].[Ag+] [silver nitrate] + CC#N
[3]
Conditions	mass density [kg/m3]	speed of sound [m/s]
m1 = 0.0283	785.04	1272
m1 = 0.04474	789.86	1273.5
m1 = 0.06947	797.11	1275.3
m1 = 0.09727	805.38	1277.7
m1 = 0.1285	814.46	1279.5

CC#N.CC#N.CC#N.CC#N.[Cu+].[O-][Cl+3]([O-])([O-])[O-] [tetraacetonitrile copper perchlorate] + CC#N
[3]
Conditions	mass density [kg/m3]	speed of sound [m/s]
m1 = 0.02538	787.25	1272.1
m1 = 0.03962	793.19	1273.7
m1 = 0.0589	801.28	1275
m1 = 0.08537	812.53	1276.7
m1 = 0.1254	828.76	1278.5

CCCC[N+](CCCC)(CCCC)CCCC.O=[N+]([O-])[O-] [tetrabutylammonium nitrate] + CC#N
[3]
Conditions	mass density [kg/m3]	speed of sound [m/s]
m1 = 0.02174	781.56	1272.7
m1 = 0.04144	785.96	1273.7
m1 = 0.06482	791.21	1275.2
m1 = 0.08753	796.37	1276.6
m1 = 0.1139	802.45	1279.3

CCCC[N+](CCCC)(CCCC)CCCC.[O-][Cl+3]([O-])([O-])[O-] [tetrabutylammonium perchlorate] + CC#N
[3]
Conditions	mass density [kg/m3]	speed of sound [m/s]
m1 = 0.02616	783.32	1272.4
m1 = 0.04068	786.97	1273.2
m1 = 0.06312	792.62	1275.2
m1 = 0.09762	801.31	1276.8
m1 = 0.1502	814.61	1278.2
